According to the supplement of paper PMC10307832:

What was measured:
Assay in all cases: relative viability (nuclei count vs DMSO), 5 days (fraction); higher = more cells survive
[1] = compound: Cn1c(Nc2ccc(C(F)(F)F)cc2)nc2cc(Oc3ccnc(-c4ncc(C(F)(F)F)[nH]4)c3)ccc21 [RAF265] + Nc1ncn([C@H]2C[C@H](O)[C@@H](CO)O2)c(=O)n1 [Decitabine] (partner 2 µM)
In short: (§1)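 Relative viability divides the nuclei count in treated wells by that in vehicle wells. Lung cancer cell lines were seeded in 1536-well plates, dosed by pin tool the next day, and fixed and stained after 5 days in one step with final 0.05% Triton X-100, 1% formaldehyde and 1 ug/ml Hoechst. Dosing was a single drug or a fixed anchor-drug dose plus five library-drug doses (not always all listed) in √10 steps, and values are medians of duplicate plates imaged at 4×.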

[2] = compound: Cc1ccc(-n2nc(C(C)(C)C)cc2NC(=O)Nc2ccc(OCCN3CCOCC3)c3ccccc23)cc1 [Doramapimod] + O=C(c1cc(Cc2n[nH]c(=O)c3ccccc23)ccc1F)N1CCN(C(=O)C2CC2)CC1 [Olaparib] (partner 8 µM)
In short: as §1

[3] = compound: Cn1c(Nc2ccc(C(F)(F)F)cc2)nc2cc(Oc3ccnc(-c4ncc(C(F)(F)F)[nH]4)c3)ccc21 [RAF265] + CS(=O)(=O)CCNCc1ccc(-c2ccc3ncnc(Nc4ccc(OCc5cccc(F)c5)c(Cl)c4)c3c2)o1 [Lapatinib] (partner 2 µM)
In short: as §1

[4] = compound: Cc1ccc(-n2nc(C(C)(C)C)cc2NC(=O)Nc2ccc(OCCN3CCOCC3)c3ccccc23)cc1 [Doramapimod] + CCNC(=O)c1noc(-c2cc(C(C)C)c(O)cc2O)c1-c1ccc(CN2CCOCC2)cc1 [Luminespib] (partner 0.01 µM)
In short: as §1

Row | Cell Line | relative viability ([1]; first compound 0.01 µM) | relative viability ([1]; first compound 0.03162 µM) | relative viability ([1]; first compound 0.1 µM) | relative viability ([1]; first compound 0.3162 µM) | relative viability ([1]; first compound 1 µM) | relative viability ([2]; first compound 0.02 µM) | relative viability ([2]; first compound 0.06325 µM) | relative viability ([2]; first compound 0.2 µM) | relative viability ([2]; first compound 0.6325 µM) | relative viability ([2]; first compound 2 µM) | relative viability ([3]; first compound 0.01 µM) | relative viability ([3]; first compound 0.03162 µM) | relative viability ([3]; first compound 0.1 µM) | relative viability ([3]; first compound 0.3162 µM) | relative viability ([3]; first compound 1 µM) | relative viability ([4]; first compound 0.02 µM) | relative viability ([4]; first compound 0.06325 µM) | relative viability ([4]; first compound 0.2 µM) | relative viability ([4]; first compound 0.6325 µM) | relative viability ([4]; first compound 2 µM)
1 | 201T | 0.879 | 0.839 | 0.864 | 0.884 | 0.858 | 0.869 | 1.01 | 0.848 | 0.96 | 0.839 | 1.02 | 1.04 | 1.04 | 1.06 | 1.04 | 1.01 | 1.01 | 0.99 | 1.18 | 1
2 | A549 | 0.226 | 0.232 | 0.259 | 0.318 | 0.155 | 0.376 | 0.3 | 0.299 | 0.3 | 0.269 | 0.906 | 0.853 | 0.987 | 0.465 | 0.463 | – | – | – | – | –
3 | A-427 | 0.549 | 0.507 | 0.514 | 0.37 | 0.238 | 0.86 | 0.85 | 0.838 | – | 0.738 | 1.06 | 0.949 | 1.06 | 1.11 | 0.713 | 0.979 | 0.806 | 1.08 | – | 0.918
4 | ABC-1 | 1.16 | 1.04 | 1.07 | 1.17 | 0.979 | 0.851 | 0.68 | 0.698 | 0.983 | 0.935 | 1.08 | 1.01 | 1.2 | 1.25 | 0.886 | 0.423 | 0.67 | 0.156 | 0.863 | 0.555
5 | BEN | 0.835 | 0.722 | 0.769 | 0.737 | 0.655 | 1.05 | 1.1 | 1.01 | 0.901 | 0.967 | 0.726 | 0.76 | 0.945 | 0.831 | 0.557 | 0.537 | 0.56 | 0.351 | 0.13 | 0.352
6 | CAL-12T | – | – | – | – | – | 0.724 | 0.711 | 0.68 | 0.758 | 0.609 | 0.68 | 0.653 | 0.825 | 0.598 | 0.449 | 0.363 | 0.381 | 0.345 | 0.364 | 0.395
7 | COR-L23 | 0.553 | 0.399 | 0.436 | 0.377 | 0.313 | 0.368 | 0.351 | 0.368 | 0.315 | 0.379 | 1.02 | 0.982 | 1.02 | 0.748 | 0.62 | 0.71 | 0.659 | 0.787 | 0.741 | 0.541
8 | COR-L 105 | 0.688 | 0.773 | 0.599 | 0.497 | 0.436 | 0.59 | 0.727 | 0.707 | 0.824 | 0.602 | 0.341 | 0.376 | 0.383 | 0.342 | 0.322 | 0.883 | 0.73 | 0.645 | 0.851 | 0.719
9 | Calu-6 | – | – | – | – | – | 0.589 | 0.6 | 0.622 | 0.554 | 0.557 | 1.01 | 0.875 | 0.877 | 0.485 | 0.388 | – | – | – | – | –
10 | ChaGo-K-1 | 0.584 | 0.546 | 0.512 | 0.516 | 0.437 | 0.472 | 0.423 | 0.438 | 0.379 | 0.398 | – | – | – | – | – | 0.594 | 0.49 | 0.595 | 0.52 | 0.541
11 | EBC-1 | – | – | – | – | – | 0.664 | 0.69 | 0.689 | 0.675 | 0.558 | 0.209 | 0.218 | 0.232 | 0.284 | 0.247 | – | – | – | – | –
12 | EKVX | 0.404 | 0.318 | 0.39 | 0.201 | 0.281 | 0.955 | 0.775 | 0.888 | 0.844 | 0.742 | 0.189 | 0.199 | 0.228 | 0.153 | 0.187 | 0.92 | 0.868 | 0.906 | 0.914 | 0.77
13 | EMC-BAC-2 | 1.05 | 0.842 | 0.958 | 0.832 | 0.547 | 0.494 | 0.441 | 0.469 | 0.473 | 0.43 | 0.908 | 0.856 | 0.857 | 0.993 | 0.449 | 1.28 | 1.17 | 1.12 | 1.22 | 1.15
14 | EPLC-272H | 0.409 | 0.34 | 0.371 | 0.243 | 0.231 | 0.732 | 0.766 | 0.726 | 1.03 | 0.717 | 0.976 | 0.707 | 0.655 | 0.855 | 0.343 | 0.368 | 0.296 | 0.741 | 0.494 | 0.187
15 | H3255 | 0.666 | 0.564 | 0.682 | 0.198 | 0.43 | 0.591 | 0.567 | 0.573 | 0.567 | 0.539 | 0.254 | 0.248 | 0.26 | – | 0.17 | 0.947 | 0.844 | 0.843 | 0.686 | 0.697
16 | HARA | 0.652 | 0.468 | 0.53 | 0.426 | 0.414 | 0.741 | 0.709 | 0.839 | 0.835 | 0.76 | 0.889 | 0.752 | 0.633 | 0.493 | 0.421 | 0.779 | 0.688 | 0.873 | – | 0.576
17 | HCC-15 | 0.714 | 0.613 | 0.524 | 0.545 | 0.42 | 0.675 | 0.692 | 0.675 | 0.654 | 0.623 | 0.832 | 0.893 | 0.847 | 0.657 | 0.638 | 0.472 | 0.425 | 0.444 | – | 0.201
18 | HCC-44 | 0.945 | 0.951 | 0.95 | 0.967 | 0.947 | 0.995 | 0.976 | 0.993 | 0.979 | 0.977 | 0.994 | 0.895 | 0.993 | 1.04 | 0.968 | 1.06 | 1.05 | 1 | 1.24 | 0.983
